The source made the active and inactive calls. The rule behind the calls is not given here.
Tested on: rodent carcinogenicity bioassays, tumor incidence
Assay: CCRIS carcinogenicity studies
How it was run: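 NCI-built, expert-reviewed records of carcinogenicity and related test outcomes (mutagenicity, tumor promotion/inhibition) compiled from published and report sources, historical span 1985-2011, not updated.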

For `O=C(O)CO`, the carcinogen call (Species: Mouse, Strain/Sex: SKH-1/Female (18/Group), Route: Dermal, Dose: 0, 4, 10% administered as topical cream (pH 3.5) , 5 d/wk, 40 wk, animals held an additional 12 wk for study duration of, Tumor Site: Type of Lesion: Skin: Carcinoma in situ, squamous cell carcinoma, basal cell carcinoma) was “inactive; negative. when synthetic solar light (ssl) at 0.3 and 0.6 the minimal erythema d” and the carcinogen call (Species: Mouse, Strain/Sex: SKH-1/Male (18/Group), Route: Dermal, Dose: 0, 4, 10% administered as topical cream (pH 3.5) , 5 d/wk, 40 wk, animals held an additional 12 wk for study duration of, Tumor Site: Type of Lesion: Skin: Carcinoma in situ, squamous cell carcinoma, basal cell carcinoma) was “inactive; negative. when synthetic solar light (ssl) at 0.3 and 0.6 the minimal erythema d”.
`CC1CN(N=O)CCO1` (stereo not given) was tested, and the carcinogen call (Species: HAMSTER, Strain/Sex: SYRIAN/MALE, Route: INTRAGASTRIC, Dose: 0, 27 MG/ML IN 0.2 ML STERILIZED WATER 1/WK FOR 30 WK (TOTAL DOSE 162 MG) (STUDY DURATION: LIFESPAN), Tumor Site: Type of Lesion: LIVER: HEMANGIOSARCOMA, NASAL CAVITY: CARCINOMA, LUNG: CARCINOMA, ADENOMA, FORESTOMACH: PAPILLOMA, TRACHEA: ADENOMA, Tumor Site: Type of Lesion: LIVER: HEMANGIOSARCOMA, NASAL CAVITY: CARCINOMA, LUNG: CARCINOMA, ADENOMA, FORESTOMACH: PAPILLOMA, TRACHEA: ADENOMA) was “active; positive”.
`O[C@H]1C=Cc2nc3c(ccc4ccccc43)cc2[C@@H]1O` was tested, and the carcinogen call (Species: MOUSE, Strain/Sex: SWISS/FEMALE, Route: INTRAPERITONEAL, Dose: 0, 1.05 UMOL GIVEN AS 150 NMOL IN 5 µL DMSO WITHIN 24 HR OF BIRTH, 300 NMOL IN 10 µL DMSO ON D 8 OF LIFE, AND 600 NMOL I, Tumor Site: Type of Lesion: LUNG: ADENOMA) was “active; positive” and the carcinogen call (Species: MOUSE, Strain/Sex: SWISS/MALE, Route: INTRAPERITONEAL, Dose: 0, 1.05 UMOL GIVEN AS 150 NMOL IN 5 µL DMSO WITHIN 24 HR OF BIRTH, 300 NMOL IN 10 µL DMSO ON D 8 OF LIFE, AND 600 NMOL I, Tumor Site: Type of Lesion: LUNG: ADENOMA) was “active; positive”.
`[Be+2]` was tested, and the carcinogen call (Species: RAT, Strain/Sex: WISTAR/FEMALE, Route: INTRATRACHEAL, Dose: 50 UG THEN 25 UG AFTER 10 MO, Tumor Site: Type of Lesion: LUNG: ADENOMA, ADENOCARCINOMA, ALVEOLAR/BRONCHIOLAR TUMOR) was “active; positive”.
`O[C@@H]1[C@@H]2O[C@@H]2c2c(cc3ccc4cccc5ccc2c3c45)[C@H]1O` was tested, and the carcinogen call (Species: MOUSE, Strain/Sex: ICR/FEMALE, Route: INTRAPERITONEAL, Dose: 0, 25 NMOL (TOTAL DOSE) ADMINISTERED IN DOSES OF 1/7, 2/7, AND 4/7 ON DAYS 1, 7, AND 15 OF LIFE, RESPECTIVELY (STUDY DUR, Tumor Site: Type of Lesion: LUNG: TUMOR) was “active; positive”, the carcinogen call (Species: MOUSE, Strain/Sex: ICR/FEMALE, Route: INTRAPERITONEAL, Dose: 0;25 NMOL TOTAL DOSE INJECTED IN DOSES OF 1/7 ON DAY 1, 2.7 ON DAY 8, AND 4/7 ON DAY 15 OF LIFE (STUDY DURATION: 35 WK), Tumor Site: Type of Lesion: LUNG: TUMOR) was “active; positive” and the carcinogen call (Species: MOUSE, Strain/Sex: ICR/MALE, Route: INTRAPERITONEAL, Dose: 0, 25 NMOL TOTAL DOSE INJECTED IN DOSES OF 1/7 ON DAY 1, 2/7 ON DAY 8, AND 4/7 ON DAY 15 OF LIFE (STUDY DURATION: 35 WK), Tumor Site: Type of Lesion: LUNG:TUMOR) was “active; positive”. For the same compound, the carcinogen call (Species: MOUSE, Strain/Sex: ICR/MALE, Route: INTRAPERITONEAL, Dose: 0, 25 NMOL (TOTAL DOSE) ADMINISTERED IN DOSES OF 1/7, 2/7, AND 4/7 ON DAYS 1, 7, AND 15 OF LIFE, RESPECTIVELY (STUDY DUR, Tumor Site: Type of Lesion: LUNG: TUMOR) was “active; positive”, the carcinogen call (Species: RAT, Strain/Sex: STRAIN-CD/FEMALE, Route: INJECTION, Dose: 0, 2.04 UMOL IN 0.1 ML DMSO 3 INJECTIONS INTO MAMMARY TISSUE BENEATH THE 3 LEFT THORACIC NIPPLES ON THE NEXT DAY PROCEDU, Tumor Site: Type of Lesion: MAMMARY GLAND: TUMOR) was “active; positive” and the carcinogen call (Species: RAT, Strain/Sex: STRAIN-CD/FEMALE, Route: INJECTION, Dose: 0, 2.04 UMOL IN 0.1 ML DMSO INJECTED BENEATH EACH THE THREE LEFT THORACIC NIPPLES THEN ON THE NEXT DAY BENEATH EACH OF T, Tumor Site: Type of Lesion: MAMMARY GLAND: TUMOR) was “active; positive”.
For `[Ni]=[Se]`, the carcinogen call (Species: RAT, Strain/Sex: F344/MALE, Route: INTRAMUSCULAR, Tumor Site: Type of Lesion: INJECTION SITE: SARCOMA) was “active; positive”.
`ClC1=C(Cl)C(Cl)(Cl)C(Cl)=C1Cl` was tested, and the carcinogen call (Species: MOUSE, Strain/Sex: B6C3F1/FEMALE, Route: INHALATION, Dose: 0, 0.01, 0.05, 0.2 PPM IN AIR 6 HR/D 5 D/WK FOR 104 WK (STUDY DURATION: 104 WK), Dose: 0, 0.01, 0.05, 0.2 PPM IN AIR 6 HR/D 5 D/WK FOR 104 WK (STUDY DURATION: 104 WK)) was “inactive; negative”, the carcinogen call (Species: MOUSE, Strain/Sex: B6C3F1/MALE, Route: INHALATION, Dose: 0, 0.01, 0.05, 0.2 PPM IN AIR 6 HR/D 5 D/WK FOR 104 WK (STUDY DURATION: 104 WK), Dose: 0, 0.01, 0.05, 0.2 PPM IN AIR 6 HR/D 5 D/WK FOR 104 WK (STUDY DURATION: 104 WK)) was “inactive; negative” and the carcinogen call (Species: RAT, Strain/Sex: F344/FEMALE, Route: INHALATION, Dose: 0, 0.01, 0.05, 0.2 PPM IN AIR 6 HR/D 5 D/WK FOR 104 WK (STUDY DURATION: 104 WK), Dose: 0, 0.01, 0.05, 0.2 PPM IN AIR 6 HR/D 5 D/WK FOR 104 WK (STUDY DURATION: 104 WK)) was “inactive; negative”. For the same compound, the carcinogen call (Species: RAT, Strain/Sex: F344/MALE, Route: INHALATION, Dose: 0, 0.01, 0.05, 0.2 PPM IN AIR 6 HR/D 5 D/WK FOR 104 WK (STUDY DURATION: 104 WK), Dose: 0, 0.01, 0.05, 0.2 PPM IN AIR 6 HR/D 5 D/WK FOR 104 WK (STUDY DURATION: 104 WK)) was “inactive; negative”.
In the case of `CNNC`, the carcinogen call (Species: HAMSTER, Route: INTRAMUSCULAR, Tumor Site: Type of Lesion: STOMACH, LIVER, INTESTINES, Tumor Site: Type of Lesion: STOMACH, LIVER, INTESTINES) is reported as “active; positive”, the carcinogen call (Species: HAMSTER, Route: ORAL, Tumor Site: Type of Lesion: BLOOD VESSELS, INTESTINES, LIVER, Tumor Site: Type of Lesion: BLOOD VESSELS, INTESTINES, LIVER) is reported as “active; positive” and the carcinogen call (Species: MONKEY, Strain/Sex: CEBUS APELLA/MALE, Route: SUBCUTANEOUS, Dose: 0, 25 MG/KG BW 1/WK FOR 16 WK (STUDY DURATION: 20 MO)) is reported as “inactive; negative”. The carcinogen call (Species: MOUSE, Route: ORAL, Tumor Site: Type of Lesion: LUNG, BLOOD VESSELS) was “active; positive”, the carcinogen call (Species: MOUSE, Route: SUBCUTANEOUS, Tumor Site: Type of Lesion: COLON, INTESTINES) was “active; positive” and the carcinogen call (Species: RAT, Route: ORAL, Tumor Site: Type of Lesion: INTESTINES, LIVER) was “active; positive”. The carcinogen call (Species: RAT, Route: SUBCUTANEOUS, Tumor Site: Type of Lesion: COLON, INTESTINES, LIVER, Tumor Site: Type of Lesion: COLON, INTESTINES, LIVER) was “active; positive”, the carcinogen call (Species: RAT, Strain/Sex: WISTAR/FEMALE, Route: SUBCUTANEOUS, Dose: 0, 200 MG/KG BW ONCE (STUDY DURATION: 1 YR), Tumor Site: Type of Lesion: KIDNEY: TUMOR) was “active; positive” and the carcinogen call (Species: RAT, Strain/Sex: WISTAR/MALE, Route: SUBCUTANEOUS, Dose: 30 MG/KG IN NACL-EDTA 1/WK FOR 10 OR 15 WK, Tumor Site: Type of Lesion: INTESTINES: CARCINOMA (INVASIVE, INCLUDING MUCIN AND NONMUCIN PRODUCING), CARCINOMA (NONINVASIVE)) was “active; positive”.
In the case of `CN(CC(=O)O)N=O`, the carcinogen call (Species: MOUSE, Route: INTRAPERITONEAL, Tumor Site: Type of Lesion: LIVER) is reported as “active; positive”, the carcinogen call (Species: MOUSE, Route: ORAL, Tumor Site: Type of Lesion: NASAL CAVITY) is reported as “active; positive” and the carcinogen call (Species: RAT, Route: ORAL, Tumor Site: Type of Lesion: ESOPHAGUS) is reported as “active; positive”.
`CCCNC(=O)NS(=O)(=O)c1ccc(Cl)cc1` was tested, and the carcinogen call (Species: MOUSE, Strain/Sex: B6C3F1/FEMALE, Route: ORAL, Dose: 0, 3317, 6635 PPM IN DIET, Dose: 0, 3317, 6635 PPM IN DIET) was “inactive; negative”, the carcinogen call (Species: MOUSE, Strain/Sex: B6C3F1/MALE, Route: ORAL, Dose: 0, 3317, 6635 PPM IN DIET, Dose: 0, 3317, 6635 PPM IN DIET) was “inactive; negative” and the carcinogen call (Species: RAT, Strain/Sex: F344/FEMALE, Route: ORAL, Dose: 0, 3000, 6000 PPM IN DIET, Dose: 0, 3000, 6000 PPM IN DIET) was “inactive; negative”. For the same compound, the carcinogen call (Species: RAT, Strain/Sex: F344/MALE, Route: ORAL, Dose: 0, 3000, 6000 PPM IN DIET, Dose: 0, 3000, 6000 PPM IN DIET) was “inactive; negative”.
In the case of `O=C(NCC1CCCCN1)c1cc(OCC(F)(F)F)ccc1OCC(F)(F)F` (stereo not given), the carcinogen call (Species: MOUSE, Strain/Sex: CD-1/MALE,FEMALE, Route: ORAL, Dose: 15, 30, 60 MG/KG/DAY IN DIET FOR 18 MO, Dose: 15, 30, 60 MG/KG/DAY IN DIET FOR 18 MO) is reported as “inactive; negative” and the carcinogen call (Species: RAT, Strain/Sex: WISTAR/MALE,FEMALE, Route: ORAL, Dose: 15, 30, 60 MG/KG/DAY IN DIET FOR 24 MO, Dose: 15, 30, 60 MG/KG/DAY IN DIET FOR 24 MO) is reported as “inactive; negative”.

— PubChem BioAssay AID1259411 (Chemical Carcinogenesis Research Information System (CCRIS), 2018)
